From ChEMBL document CHEMBL3988181, “GlaxoSmithKline Published Kinase Inhibitor Set 2 Onchocerca lienalis Screening Data”

Assay: GSK PKIS2: Screen against O. lienalis microfilariae, single point, at 3.1uM to assess reduction in motility. Compounds were also tested for cytotoxicity against Rhesus Monkey LLCMK2 cells.
Type: functional, Onchocerca lienalis, LLC-MK2
Conditions: CELL_LINE LLCMK2; CELL_SUPPLIER ECACC; CONC 3.1 uM; ORGANISM_SUPPLIER Extracted from peri-umbilical skin obtained from naturally infected cattle in the UK; temperature 37 degree C

| Structure (SMILES) | MOTILITY REDUCTION/CYTOTOXICITY [%] |
| --- | --- |
| Cn1cc(-c2ccc3c(c2)CCN3C(=O)Cc2cc(F)cc(C(F)(F)F)c2)c2c(N)ncnc21 | 0 |
| Nc1ncc(-c2cn[nH]c2)c2scc(-c3ccc4c(c3)CCN4C(=O)Cc3ccccc3)c12 | 0 |
| COc1cc(Nc2ncc3c(C)nc(-c4cc5ccccc5[nH]4)n3n2)cc(OC)c1OC | 53.4 |
| Oc1cc(-c2nc(-c3ccccc3)[nH]c2-c2ccncc2)ccc1Cl | 0 |
| O=C(Nc1cccc(-c2nn3ncccc3c2-c2ccnc(Nc3cccc(C(F)(F)F)c3)n2)c1)c1c(F)cccc1F | 0 |
| O=C(Nc1ccc2c(c1)OCO2)NC1CCN(c2ccnc(Nc3ccc(F)cc3)n2)C1 (stereo not given) | 33.4 |
| CN1C(=O)C(Nc2ccccc2)=C(c2ccccc2)C1=O | 13.4 |
| Cc1ccc(NC(=O)c2ccc(Cl)c(Cl)c2)cc1-c1ccc(C(=O)Nc2ccncc2)cc1 | 26.7 |
| CC(=O)N1CCN(c2ccc(Nc3nccc(-c4sc(C(C)C)nc4-c4cccc(NS(=O)(=O)c5cccc(Cl)c5)c4)n3)cn2)CC1 | 0 |
| COc1cccc(NC(=O)NC2CCN(c3ccnc(Nc4cc(OC)c(OC)c(OC)c4)n3)C2)c1 (stereo not given) | 86.7 |
| CC(C)c1nc(-c2cccc(NS(=O)(=O)c3c(F)cccc3F)c2F)c(-c2ccnc(Nc3ccc(N4CCOCC4)nc3)n2)s1 | 93.4 |
| O=C1NC(=O)C(c2ccc(Cl)cc2)=C1Nc1ccc(O)c(Cl)c1 | 33.4 |
| CC(C)Nc1cc(-c2ccc3c(N)n[nH]c3c2)nc(N)n1 | 60 |
| CN(C)CCOc1ccc(-c2cc(-c3ccc(Cl)c(O)c3)c(-c3ccncc3)[nH]2)cc1 | 0 |
| c1ccc(-c2ccnc3[nH]ccc23)cc1 | 33.4 |
| c1ccc(-c2n[nH]cc2Nc2ccnc3ccccc23)nc1 | 100 |
| Nc1ncnc2c1ncn2-c1cccc2ccccc12 | 0 |
| CS(=O)(=O)CCNCc1nc(-c2ccc3ncnc(Nc4ccc(OCc5cccc(F)c5)c(Cl)c4)c3c2)cs1 | 0 |
| NCCNS(=O)(=O)c1ccc(-c2ccnc3[nH]ccc23)cc1 | 0 |
| CSc1ccc(NC2=C(c3cccc(Cl)c3)C(=O)NC2=O)cc1 | 0 |
| CCCCCc1nc2c(N)ncnc2n1CCCCC | 0 |
| CCn1c(-c2nonc2N)nc2ccccc21 [GW549034X] | 0 |
| CN1CCC(n2cnc(-c3ccc(F)cc3)c2-c2ccnc(NC3CCNCC3)n2)CC1 | 0 |

| Structure (SMILES) | MOTILITY REDUCTION/CYTOTOXICITY [%] |
| --- | --- |
| Nc1nc(N)c2[nH]c(-c3ccccc3)nc2n1 | 20 |
| Cc1cccc(-c2nc(Nc3ccc4nn[nH]c4c3)c3ccccc3n2)n1 | 20 |
| CC(C)(C)c1ccc(-n2cnc3c(N)ncnc32)cc1 | 0 |
| Fc1ccc(-c2ncn(C3CCNCC3)c2-c2ccnc(Nc3ccccc3)n2)cc1 | 0 |
| Cn1cc(-c2ccc3c(c2)CCN3C(=O)Cc2cc(F)cc(F)c2F)c2c(N)ncnc21 | 0 |
| O=C(Nc1n[nH]c2nc(-c3cccs3)c(Br)cc12)C1CC1 | 0 |
| c1ccc(-c2cnc3nccnn23)cc1 | 0 |
| CCOC(=O)N1CCC(n2cnc(-c3ccc(F)cc3)c2-c2ccnc(N)n2)CC1 | 0 |
| O=C(Nc1cccc(-c2nn3ncccc3c2-c2ccnc(Nc3ccccc3)n2)c1)c1c(F)cccc1F | 0 |
| O=C1NC(=O)C(N2CCc3ccccc32)=C1c1cccc(Cl)c1 | 0 |
| CSc1cccc2c(-c3ccncn3)c(-c3ccc(F)cc3)nn12 | 33.4 |
| CC(C)(C)c1ccc2nccc(Nc3cccc(O)c3)c2c1 | 100 |
| O=c1cc(N2CCOCC2)nc2n(Cc3cccc(C(F)(F)F)c3)ccn12 | 26.7 |
| c1ccc(Oc2ccc(Nc3ccnc4cc(-c5ccc(CN6CCCCC6)o5)ccc34)cc2)nc1 | 20 |
| O=C(NCc1cccs1)c1cc(C(=O)c2c(Cl)cccc2Cl)c[nH]1 | 0 |
| COc1ccc(CNC(=O)NC2CCN(c3ccnc(Nc4ccc(OC)cc4)n3)C2)cc1 (stereo not given) | 0 |
| NC[C@H](CC1CCCCC1)NC(=O)c1cc(Br)c(-c2ccnc3[nH]ccc23)s1 | 0 |
| COc1cccc(C2=C(Nc3cccc(Cl)c3)C(=O)NC2=O)c1 | 0 |
| COc1cc2nccc(Nc3ccc(Oc4ccccc4)cc3)c2cc1OC | 0 |
| COc1ccc(Nc2nccc(-c3cccc(NC(=O)c4cc5cc(F)ccc5[nH]4)c3)n2)cc1 | 53.4 |
| c1ccc(Oc2ccc(Nc3ccnc4ccc(-c5ccccn5)cc34)cc2)cc1 | 0 |
| COc1ccc(C[C@@H](CN)NC(=O)c2cc(Br)c(-c3ccnc4[nH]ccc34)s2)cc1 | 33.4 |
| NS(=O)(=O)c1cccc(Nc2cc(-c3ccc(F)cc3)n[nH]2)c1 | 33.4 |

| Structure (SMILES) | MOTILITY REDUCTION/CYTOTOXICITY [%] |
| --- | --- |
| CC(C)NCC(Cc1ccccc1)NC(=O)c1cc(Br)c(-c2ccnc3[nH]ccc23)s1 (stereo not given) | 66.7 |
| Cc1c(Cn2c(C)nn3c(=O)cc(N4CCO[C@H](C)C4)nc23)cccc1C(F)(F)F | 0 |
| O=c1[nH]ccc2nc(N[C@@H]3CCNC3)nc(Nc3ccc4c(c3)S(=O)(=O)CC4)c12 | 0 |
| COC(=O)C(Cc1ccccc1)NC(=O)NC1CCN(c2ccnc(Nc3ccc(F)cc3)n2)C1 (stereo not given) | 13.4 |
| O=c1cc(N2CCOCC2)nc2n(Cc3cccc4ccccc34)ccn12 | 0 |
| Nc1cccc(-c2ccc3c(N)n[nH]c3c2)n1 | 0 |
| Cc1ccc(-c2nc(Nc3ccncc3)c3ccccc3n2)s1 | 0 |
| COC(=O)c1cccc(NC(=O)NC2CCN(c3ccnc(Nc4ccc(F)cc4)n3)C2)c1 (stereo not given) | 0 |
| O=C(NCCNc1ccnc(Nc2ccc(F)cc2)n1)Nc1ccc2c(c1)OCO2 | 0 |
| Cc1ccc(CC(=O)N2CCc3cc(-c4cn(C)c5ncnc(N)c45)ccc32)cc1 | 0 |
| Cc1nnc(-c2ccc(C)c(-c3ccc(C(=O)Nc4ccc(NS(C)(=O)=O)cc4)cc3)c2)o1 | 0 |
| CC(=O)Nc1ccc(COc2ccc(Nc3ccnc4cc(-c5ccccn5)ccc34)cc2)cc1 | 100 |
| CCn1c(-c2ccccn2)nc2cnccc21 | 0 |
| Cn1cncc1C(=O)NC1CCN(c2ccnc(Nc3ccc(F)cc3)n2)C1 (stereo not given) | 0 |
| CSc1ccc(NC2=C(c3ccc(Cl)cc3)C(=O)NC2=O)cc1 | 0 |
| NC(=O)c1sc(-n2cnc3ccccc32)cc1OCc1ccccc1F | 20 |
| Fc1cc(Cl)ccc1Nc1ccnc2cc(-c3ccc(CN4CCOCC4)o3)ccc12 | 0 |
| c1ccc(Oc2ccc(Nc3ccnc4cc(-c5ccc(CN6CCNCC6)o5)ccc34)cc2)nc1 | 0 |
| CCn1c(-c2nonc2N)nc2c(C#CC(C)(C)O)nc(OCCN)cc21 | 0 |
| Cc1cccc(-c2nc(C)cc(Nc3ccncc3)n2)n1 | 0 |
| COc1cc2c(Nc3cccc(NC(=O)c4ccccc4)c3)ncnc2cc1OCCCN1CCOCC1 | 0 |
| FC(F)(F)c1ccc(-c2nn3ncccc3c2-c2ccnc(Nc3cccc(C(F)(F)F)c3)n2)cc1 | 0 |
| O=C(c1ccc(-c2cc(-c3c[nH]nc3-c3ccccn3)ccn2)cc1)N1CCOCC1 | 0 |

| Structure (SMILES) | MOTILITY REDUCTION/CYTOTOXICITY [%] |
| --- | --- |
| CCCc1ccc(S(=O)(=O)NC2CCN(c3ccnc(Nc4ccc(OC)cc4)n3)C2)cc1 (stereo not given) | 0 |
| COc1ccc(Nc2nccc(N3CCC(NC(=O)c4cccc(NC(C)=O)c4)C3)n2)cc1 (stereo not given) | 0 |
| CC(C)Oc1ccc2c(-c3ccnc(Nc4ccc(N5CCN(C)CC5)cc4)n3)cnn2n1 | 0 |
| COc1cccc(CNC(=O)NC2CCN(c3ccnc(Nc4cc(OC)c(OC)c(OC)c4)n3)C2)c1 (stereo not given) | 66.7 |
| COc1cc2nccc(Nc3ccc(OCc4ccc(NC(C)=O)cc4)cc3)c2cc1OC | 0 |
| COc1cccc(NC(=O)Nc2ccc(C)c(-c3ccc(C(=O)Nc4ccncc4)cc3)c2)c1 | 100 |
| Fc1cccc(COc2ccc(Nc3ncnc4nn5ccccc5c34)cc2Cl)c1 | 0 |
| Cc1ccccc1Cn1ccn2c(=O)cc(N3CCOCC3)nc12 | 0 |
| COc1cc2ncn(-c3cc(OCc4sccc4Cl)c(C(N)=O)s3)c2cc1OC | 13.4 |
| COc1ccc(Nc2nccc(N3CCC(NC(=O)C(C)c4ccc(Cl)cc4)C3)n2)cc1 (stereo not given) | 33.4 |
| CC(C)c1nc(-c2cccc(NS(=O)(=O)c3ccccc3)c2)c(-c2ccnc(Nc3ccc4c(c3)CN(C)CC4)n2)s1 | 86.7 |
| CN(C1=C(c2ccccc2)C(=O)NC1=O)c1ccccc1 | 0 |
| COc1ccccc1C1=C(Nc2cccc(O)c2)C(=O)NC1=O | 100 |
| Cc1cc(Nc2nc(-c3cccc(C)n3)nc3ccccc23)ccn1 | 0 |
| CCn1c(-c2c(N)noc2C)nc2cnccc21 | 0 |
| COc1cc(Nc2nccc(-c3c(-c4cccc(NC(=O)c5c(F)cccc5F)c4)nn4ccccc34)n2)cc(OC)c1OC | 20 |
| c1ccc(-c2ccc3c(Nc4ccc5[nH]ncc5c4)ccnc3c2)nc1 | 60 |
| Cc1occc1-c1nc(N)c(OC[C@@H](N)Cc2c[nH]c3ccccc23)cc1-c1cc2c(C)n[nH]c2cn1 | 0 |
| COc1cc(Nc2nccc(N3CCC(NS(=O)(=O)c4ccc(NC(C)=O)cc4)CC3)n2)cc(OC)c1OC | 33.4 |
| Fc1cc(Cl)ccc1Nc1ccnc2cc(I)ccc12 | 33.4 |
| CC(C(=O)NC1CCN(c2ccnc(Nc3ccc(F)cc3)n2)C1)c1ccc(Cl)cc1 (stereo not given) | 33.4 |
